Read-outs that look alike come from different tables or passages of the source.
Columns and labels:
[1] = biological target: T1, Human tyrosinase (Homo sapiens, UniProt P14679); assay: Inhibition of human tyrosinase after 24 h application to normal human melanocytes in monolayer; format: cell-based; settings: for Tyrosinase inhibition, Mean Inhibition (%), 0.03%: test concentration 0.03%; for anti-tyrosinase activity, in words: comment on Table 4, normal human melanocytes
T1 construct: endogenous in cells; host or cells: normal human melanocytes (abdominal surgery; several donors of fair, brown and black phototypes)
T1 sequence (P14679 19-529): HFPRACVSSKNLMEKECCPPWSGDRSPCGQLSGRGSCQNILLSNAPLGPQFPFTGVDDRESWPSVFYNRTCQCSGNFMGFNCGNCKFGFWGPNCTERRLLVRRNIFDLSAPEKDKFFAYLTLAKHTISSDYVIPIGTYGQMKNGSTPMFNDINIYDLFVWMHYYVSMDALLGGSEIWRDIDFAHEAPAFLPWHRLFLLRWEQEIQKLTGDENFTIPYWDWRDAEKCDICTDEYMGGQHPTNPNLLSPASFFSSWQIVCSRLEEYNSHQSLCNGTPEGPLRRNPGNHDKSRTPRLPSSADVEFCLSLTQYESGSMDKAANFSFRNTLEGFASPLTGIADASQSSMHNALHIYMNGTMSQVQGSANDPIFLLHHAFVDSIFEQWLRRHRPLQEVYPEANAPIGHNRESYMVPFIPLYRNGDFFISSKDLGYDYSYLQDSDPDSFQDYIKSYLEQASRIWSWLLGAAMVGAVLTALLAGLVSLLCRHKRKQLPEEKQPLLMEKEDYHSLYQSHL
Protocol: Normal human melanocytes (obtained from abdominal surgery) are seeded in 24-well plates at a rate of 80 000 cells per well. They are cultured to confluence and the active agents are applied for 24 hours to the culture media. After 24 hours, the media are removed and the melanocytes are detached via mechanical action. An extraction is performed via a thermal shock and the supernatants are then recovered and incubated with MBTH (Sigma) and L-dopa (Sigma). The OD at 490 nm is measured after 30 minutes, and the tyrosinase inhibition is calculated by relating the OD at 490 nm to the protein content (measured in each culture well) of the test relative to the ratio: OD 490 nm/protein concentration of the negative control (untreated control).
The compounds derived from the examples mentioned above were tested on melanocytes derived from various donors but of fair phototype, according to the protocol described in Example 29. The donors tested are as follows: • donor S (donor tested in Example 12): • donor 1: • donor 2: • donor 3
The compound derived from Example 1 is tested on cultures of melanocytes obtained from 2 donors of brown phototype and from one donor of black phototype. The protocol applied is that described in Example 29. […]

[2] = system: melanocytes; assay: Cytotoxicity of literature controls in the melanocyte tyrosinase model
Protocol: A study is performed with molecules known in the literature for their depigmenting activity; these molecules are applied to the model described in Example 29 so as to compare their efficacy relative to the molecules described in the various examples. […]

[3] = system: fungal tyrosinase; assay: In vitro test of inhibition of isolated fungal tyrosinase (L-dopa, dopachrome OD 490 nm); format: biochemical; settings: for Inhibition of fungal tyrosinase, percentage of inhibition, Mean 10^−4M / Inhibition of fungal tyrosinase, percentage of inhibition, Mean 10^−5M: 490 nm
Text: Tyrosinase catalyses the formation of L-dopaquinone and then of dopachrome from L-dopa. Now, dopachrome is a coloured compound that may be quantified by visible spectrophotometry at 490 nm. The use of an active agent capable of modifying the enzymatic activity will be reflected by a variation in the optical density at 490 nm. The to ratio of the rates of formation of dopachrome makes it possible to determine precisely the activations or inhibitions obtained with the various test molecules.
The sample to be tested is incubated in the presence of fungal tyrosinase (Sigma), for 5 minutes with stirring. L-Dopa (Sigma), a tyrosinase substrate, is incubated for 10 minutes in the absence of light, in the presence or absence of the test molecules. The calculation of the percentage of inhibition is performed by relating the test OD to the OD of the negative control without molecule.
In the context of this in vitro test, the p-coumaric acid derivatives were tested at final concentrations of 10^−4M and 10^−5M.

[4] = biological target: T1, Human tyrosinase; assay: In vitro test of inhibition of human tyrosinase from melanocyte extracts (L-dopa/MBTH, OD 490 nm); format: biochemical; settings: melanocyte extract; for inhibition at 100 µM: 10^−4M, read-out: Inhibition of human tyrosinase, percentage of inhibition, Mean 10^−4M; for inhibition at 10 µM: 10^−5M, read-out: Inhibition of human tyrosinase, percentage of inhibition, Mean 10^−5M
Protocol: Human tyrosinase, obtained from melanocyte extracts obtained from healthy donors, catalyses the formation of L-dopaquinone from L-dopa. Now, the L-dopaquinone may be quantified by visible spectrophotometry at 490 nm by means of a chromogen: 3-methyl-2-benzothiazolinone hydrazone (MBTH).
The melanocyte extract is obtained after lysis of cell membranes of the normal human melanocytes, performed via a thermal shock. The supernatant is recovered and then incubated with MBTH (Sigma) and L-dopa (Sigma). […]

[5] = system: normal human melanocytes; assay: Cytotoxicity on normal human melanocytes, PNPP assay; format: cell-based; settings: 24 hours, relative to untreated wells
Protocol: The cytotoxicity of the active agents is studied on normal human melanocytes in 24-well plates, via assay with PNPP (P-nitrophenyl phosphate), this substance being converted into p-nitrophenol via the intracellular acid phosphatases of viable cells. The absorbance of p-nitrophenol at 405 nm is directly proportional to the number of viable cells.
The active agents are tested at 2 different concentrations (10^−4 M and 10^−5 M) and added to the culture medium and incubated at 37° C. for 24 hours. The assay with PNPP is performed on the cell lawn and the results are expressed as a percentage of viability relative to the negative control (untreated wells).

[6] = Antiradical activity, acellular DPPH model; settings: DPPH 30 minutes, absorbance 520 nm
Protocol: The antiradical activity of the derivatives derived from the syntheses described above was evaluated in an in vitro acellular model using DPPH.
1,1-Diphenyl 2-picryihydrazyl, on account of its paramagnetic structure, can accept an electron or a hydrogen radical to become a stable diamagnetic molecule. This free radical, which is purple coloured in ethanol, has a strong absorption band at 520 nm.
The addition of a compound that provides electrons results in a decolorization of the 1,1-diphenyl 2-picrylhydrazyl that is proportional to the number of electrons taken up by the radical, which may be monitored by measuring the absorbance at 520 nm.
DPPH is incubated for 30 minutes in the presence of the derivatives described above, tested at a concentration of 10^−5M, or alone for the control. At the end of the incubation, the antiradical activity of the above derivatives is evaluated by measuring the absorbance of the solution at 520 nm.
The antiradical activity of each test product is calculated according to the formula, as a percentage: 100−((OD520 in the presence of the test compound/OD520 in the absence of compound)×100)

[7] = 10^−4M, 24 hours, read-out: Inhibition of human tyrosinase after application to normal human melanocytes, percentage of inhibition, Mean 10^−4M
[8] = 10^−5M, 24 hours, read-out: Inhibition of human tyrosinase after application to normal human melanocytes, percentage of inhibition, Mean 10^−5M
[9] = read-out: Inhibition of human tyrosinase after application to normal human melanocytes, percentage of inhibition, Mean 10^−4M

O=C1O[C@H]([C@@H](O)CO)C([O-])=C1OP(=O)([O-])[O-].O=C1O[C@H]([C@@H](O)CO)C([O-])=C1OP(=O)([O-])[O-].[Mg+2].[Mg+2].[Mg+2] [VitC MgP, reference compound]
Tyrosinase inhibition, Mean Inhibition (%), 0.03% [1]: 2.93%
Tyrosinase inhibition, Mean Inhibition (%), 0.3% ([1]; test concentration 0.3%): 1.55%
Tyrosinase inhibition, Mean Inhibition (%), 3% ([1]; test concentration 3%): 0%
Cytotoxicity, 0.03% [2]: no
Cytotoxicity, 0.3% [2]: no
Cytotoxicity, 3% [2]: no

COc1cc(/C=C/C(=O)OCCc2ccc(O)cc2)ccc1O [Example 7, 2-(p-hydroxyphenylethyl)trans-ferulate]
inhibition at 100 µM [1, 7]: 33.6%
inhibition at 10 µM [1, 8]: 3.48%

O=C1O[C@H]([C@@H](O)CO)C(O)=C1O [VitC, Vitamin C]
Tyrosinase inhibition, Mean Inhibition (%), 0.03% [1]: 0%
Cytotoxicity, 0.03% [2]: no
Cytotoxicity, 0.3% ([2]; test concentration 0.3%): cell death
Cytotoxicity, 3% ([2]; test concentration 3%): cell death

COc1cc(CNC(=O)/C=C/c2ccc(O)c(O)c2)ccc1O [Example 11, N-trans-caffeoyl-4-hydroxy-3-methoxyphenylmethylamine]
Inhibition of fungal tyrosinase, percentage of inhibition, Mean 10^−4M [3]: 12.03%
Inhibition of fungal tyrosinase, percentage of inhibition, Mean 10^−5M [3]: 3.7%
inhibition at 100 µM [4]: 0%
inhibition at 10 µM [4]: 8.68%
inhibition at 10 µM [1, 8]: 28%
Percentages of viability, Mean 10^−5 M [5]: 116.99%
Antiradical activity, Mean 10^−5 M [6]: 59.2%

O=C(/C=C/c1ccc(O)c(O)c1)NCCc1ccc(O)c(O)c1 [Example 10, N-trans-caffeoyldopamine]
Inhibition of fungal tyrosinase, percentage of inhibition, Mean 10^−4M [3]: 16.23%
Inhibition of fungal tyrosinase, percentage of inhibition, Mean 10^−5M [3]: 14.72%
inhibition at 100 µM [4]: 9.91%
inhibition at 10 µM [4]: 11.4%
inhibition at 100 µM [1, 7]: 66.8%
inhibition at 10 µM [1, 8]: 0%
inhibition at 100 µM ([1]; Donor 1, fair phototype, 10^−4 M, read-out: Inhibition of tyrosinase, Mean 10^−4 M, Donor 1): 44.6%
inhibition at 10 µM ([1]; Donor 1, fair phototype, 10^−5 M, read-out: Inhibition of tyrosinase, Mean 10^−5 M, Donor 1): 0%
inhibition at 100 µM ([1]; Donor 2, fair phototype, 10^−4 M, read-out: Inhibition of tyrosinase, Mean 10^−4 M, Donor 2): 0%
inhibition at 10 µM ([1]; Donor 2, fair phototype, 10^−5 M, read-out: Inhibition of tyrosinase, Mean 10^−5 M, Donor 2): 0.15%
inhibition at 100 µM ([1]; Donor 3, fair phototype, 10^−4 M, read-out: Inhibition of tyrosinase, Mean 10^−4 M, Donor 3): 14.4%
inhibition at 10 µM ([1]; Donor 3, fair phototype, 10^−5 M, read-out: Inhibition of tyrosinase, Mean 10^−5 M, Donor 3): 3.32%
inhibition at 100 µM ([1]; Donor S, fair phototype, 10^−4 M, read-out: Inhibition of tyrosinase, Mean 10^−4 M, Donor S): 66.8%
inhibition at 10 µM ([1]; Donor S, fair phototype, 10^−5 M, read-out: Inhibition of tyrosinase, Mean 10^−5 M, Donor S): 0%
Percentages of viability, Mean 10^−4 M [5]: 84.62%
Percentages of viability, Mean 10^−5 M [5]: 102.1%
Antiradical activity, Mean 10^−5 M [6]: 57.45%

COc1cc(/C=C/C(=O)NCc2ccc(O)c(OC)c2)ccc1O [Example 4, N-trans-feruloyl-4-hydroxy-3-methoxyphenylmethylamine]
Inhibition of fungal tyrosinase, percentage of inhibition, Mean 10^−4M [3]: 1.35%
Inhibition of fungal tyrosinase, percentage of inhibition, Mean 10^−5M [3]: 0%
inhibition at 100 µM [4]: 6.42%
inhibition at 10 µM [4]: 4.92%
inhibition at 100 µM [1, 7]: 39.8%
inhibition at 10 µM [1, 8]: 15.8%
Percentages of viability, Mean 10^−4 M [5]: 101.94%
Percentages of viability, Mean 10^−5 M [5]: 99.55%
Antiradical activity, Mean 10^−5 M [6]: 15.72%

COc1cc(CCC(=O)NCCc2ccc(O)cc2)ccc1O [Example 5, N-dihydroferuloyltyramine]
inhibition at 100 µM [1, 7]: 27.7%

COc1cc(C=CC(=O)O)ccc1O [Ferulic acid, 4-hydroxy-3-methoxycinnamic acid, reference compound]
inhibition at 100 µM [1, 7]: 11.7%
inhibition at 10 µM [1, 8]: 5.87%
anti-tyrosinase activity, in words [1]: very sparingly active

Cl.NCCc1ccc(O)c(O)c1 [Dopamine, 3-hydroxytyramine, reference compound]
anti-tyrosinase activity, in words [1]: very low activity
inhibition at 100 µM [1, 9]: 10.3%

O=C(CCc1ccc(O)c(O)c1)NCCc1ccc(O)cc1 [Example 13, dihydrocaffeoyltyramine]
inhibition at 100 µM [1, 7]: 93.9%
inhibition at 10 µM [1, 8]: 12.9%

Cl.NCCc1ccc(O)cc1 [Tyramine, reference compound]
anti-tyrosinase activity, in words [1]: very low activity
inhibition at 100 µM [1, 9]: 22.8%

O=C(CCc1ccc(O)cc1)NCCc1ccc(O)cc1 [Example 16, N-dihydrocoumaroyltyramine]
inhibition at 100 µM [1, 7]: 96.2%
inhibition at 10 µM [1, 8]: 40.7%

O=c1cc(CO)occ1O [Kojic acid, kojic acid]
Inhibition of fungal tyrosinase, positive control ([3]; 0.01%): 45%
Cytotoxicity, 0.005% [2]: no
Cytotoxicity, 0.05% [2]: no
Cytotoxicity, 0.5% [2]: cell death

O=C(O)CCc1ccc(O)cc1 [p-Dihydrocoumaric acid, 3-(4-hydroxyphenyl)propionic acid, reference compound]
inhibition at 100 µM [1, 7]: 3.74%

O=C(O)C=Cc1ccc(O)cc1 [p-Coumaric acid, p-hydroxycinnamic acid, reference compound]
inhibition at 100 µM [1, 7]: 50.1%

COc1cc(CCC(=O)NCCc2ccc(O)c(O)c2)ccc1O [Example 6, N-dihydroferuloyldopamine]
inhibition at 100 µM [1, 7]: 41.8%

O=C(O)C=Cc1ccc(O)c(O)c1 [Caffeic acid, 3,4-dihydroxycinnamic acid, reference compound]
inhibition at 100 µM [1, 7]: 10.4%
inhibition at 10 µM [1, 8]: 2.34%
anti-tyrosinase activity, in words [1]: very low activity
